Article PMC3659552 (Journal of Ginseng Research, 2011)

Target: AChE (acetylcholineserase)
Experiment: Ellman spectrophotometric assay, […] nm
Type: biochemical, Electrophorus electricus
Settings: acetylthiocholine iodide substrate; pH 8.0; 10 min preincubation

Nc1c2c(nc3ccccc13)CCCC2 [tacrine]
IC50: 825 nM
